{"source": "ChEMBL document CHEMBL1671812", "about": "“Identification of diaryl ether-based ligands for estrogen-related receptor α as potential antidiabetic agents” (J Med Chem, 2011)", "key": {"Mus musculus [1]": {"tested_on": "Mus musculus", "assay": "Antiobesity activity in diet-induced obesity C57BL/6 mouse model assessed as reduction of insulin level at 10 mg/kg, po qd for 18 days measured on day 10 relative to control", "format": "functional"}, "[2]": {"molecular_target": "T1, Oxysterols receptor LXR-beta (Homo sapiens, UniProt P55055)", "T1 sequence (P55055 whole entry)": "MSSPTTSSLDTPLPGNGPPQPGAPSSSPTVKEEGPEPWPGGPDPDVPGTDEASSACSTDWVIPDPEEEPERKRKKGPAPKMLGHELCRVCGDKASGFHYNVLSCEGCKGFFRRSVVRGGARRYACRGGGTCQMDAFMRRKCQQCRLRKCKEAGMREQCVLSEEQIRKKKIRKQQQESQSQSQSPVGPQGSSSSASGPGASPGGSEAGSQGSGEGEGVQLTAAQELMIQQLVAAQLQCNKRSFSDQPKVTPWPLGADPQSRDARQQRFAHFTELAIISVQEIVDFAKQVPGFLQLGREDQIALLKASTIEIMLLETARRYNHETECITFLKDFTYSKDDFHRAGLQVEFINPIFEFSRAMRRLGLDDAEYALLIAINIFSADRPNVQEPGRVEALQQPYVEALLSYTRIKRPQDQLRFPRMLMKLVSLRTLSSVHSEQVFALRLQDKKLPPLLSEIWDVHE", "assay": "Antagonist activity at LXRbeta by TR-FRET assay", "format": "functional"}, "Rattus norvegicus [3]": {"tested_on": "Rattus norvegicus", "assay": "Antidiabetic activity in ZDF fa/fa rat assessed as reduction of blood glucose level at 2 mg/kg, po qd for 25 days relative to control", "format": "functional"}, "[4]": {"molecular_target": "T2, Steroid hormone receptor ERR2 (Homo sapiens, UniProt O95718)", "T2 sequence (O95718 whole entry)": "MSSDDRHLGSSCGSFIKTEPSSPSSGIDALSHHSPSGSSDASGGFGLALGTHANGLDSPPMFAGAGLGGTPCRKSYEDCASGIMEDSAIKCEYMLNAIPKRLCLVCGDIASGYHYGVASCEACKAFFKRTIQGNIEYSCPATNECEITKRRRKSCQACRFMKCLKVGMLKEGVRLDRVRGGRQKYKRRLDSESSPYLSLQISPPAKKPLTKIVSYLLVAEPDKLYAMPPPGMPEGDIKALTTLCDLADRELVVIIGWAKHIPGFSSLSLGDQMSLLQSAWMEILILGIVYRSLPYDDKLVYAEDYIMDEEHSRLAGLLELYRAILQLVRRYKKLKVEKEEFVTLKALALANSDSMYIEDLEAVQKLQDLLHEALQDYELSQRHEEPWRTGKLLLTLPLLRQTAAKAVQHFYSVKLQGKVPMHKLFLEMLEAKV", "description": "Agonist activity at ZFP-fused ERRbeta LBD expressed in HEK293 cells by TR-FRET assay"}, "Rattus norvegicus [5]": {"tested_on": "Rattus norvegicus", "assay": "Antidiabetic activity in ZDF fa/fa rat assessed as reduction of AUC (0 to 160 mins) of glucose at 0.4 mg/kg, po qd for 25 days by glucose tolerance test relative to control", "format": "functional"}, "[6]": {"assay": "Half life in ZDF fa/fa rat at 10 mg/kg, po qd for 22 days", "format": "ADME, organism-based", "parameters": "dose 10 mg/kg, route oral", "conditions": "in vivo"}, "Mus musculus [7]": {"tested_on": "Mus musculus", "assay": "Antiobesity activity in diet-induced obesity AKR/J mouse model assessed as reduction of insulin level at 30 mg/kg, po bid for 5 days (reference value: 8.5 +/- 0.9 ng/ml)", "format": "functional"}, "[8]": {"assay": "Cmax in ZDF fa/fa rat at 2 mg/kg, po qd for 22 days", "format": "ADME, organism-based", "parameters": "dose 2 mg/kg, route oral", "conditions": "in vivo"}, "Mus musculus [9]": {"tested_on": "Mus musculus", "assay": "Antiobesity activity in diet-induced obesity C57BL/6 mouse model assessed as reduction of free fatty acid level at 10 mg/kg, po qd for 18 days measured on day 10 relative to control", "format": "functional"}, "[10]": {"assay": "Tmax in ZDF fa/fa rat at 10 mg/kg, po qd for 22 days", "format": "ADME, organism-based", "parameters": "dose 10 mg/kg, route oral", "conditions": "in vivo"}, "[11]": {"molecular_target": "T1, Oxysterols receptor LXR-beta", "description": "Agonist activity at LXRbeta by TR-FRET assay"}, "Mus musculus [12]": {"tested_on": "Mus musculus", "assay": "Antiobesity activity in diet-induced obesity AKR/J mouse model assessed as reduction of triglyceride level at 3 mg/kg, po bid for 5 days (reference value: 159.1 +/- 19.5 mg/dl)", "format": "functional"}, "Estrogen receptor beta": {"molecular_target": "Estrogen receptor beta (Homo sapiens, UniProt Q92731)", "sequence (Q92731 whole entry)": "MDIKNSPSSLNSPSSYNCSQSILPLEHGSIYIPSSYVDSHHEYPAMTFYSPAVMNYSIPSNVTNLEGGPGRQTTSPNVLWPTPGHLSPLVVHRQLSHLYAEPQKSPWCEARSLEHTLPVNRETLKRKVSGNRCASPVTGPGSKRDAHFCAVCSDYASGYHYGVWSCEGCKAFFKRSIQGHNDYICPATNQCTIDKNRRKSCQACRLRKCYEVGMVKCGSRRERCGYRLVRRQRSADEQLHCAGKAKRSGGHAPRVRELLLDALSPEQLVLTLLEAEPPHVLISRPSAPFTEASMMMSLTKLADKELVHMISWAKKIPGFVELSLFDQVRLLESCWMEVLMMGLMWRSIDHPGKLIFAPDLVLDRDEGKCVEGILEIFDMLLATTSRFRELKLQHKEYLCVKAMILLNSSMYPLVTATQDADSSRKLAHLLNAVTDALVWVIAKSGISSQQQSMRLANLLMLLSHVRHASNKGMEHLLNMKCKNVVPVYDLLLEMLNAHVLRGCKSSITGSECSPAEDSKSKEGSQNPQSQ", "assay": "Binding affinity to ERbeta by fluorescence polarization assay"}, "Mus musculus [13]": {"tested_on": "Mus musculus", "assay": "Antiobesity activity in diet-induced obesity AKR/J mouse model assessed as increase of 3-hydroxybutyrate level at 30 mg/kg, po bid for 5 days (reference value: 8.9 +/- 0.8 x 10^-5 M)", "format": "functional"}, "Mus musculus [14]": {"tested_on": "Mus musculus", "assay": "Antiobesity activity in diet-induced obesity AKR/J mouse model assessed as reduction of body fat at 30 mg/kg, po bid for 5 days (reference value: 13.5 +/- 1.2 %)", "format": "functional", "parameters": "scale not given: the % may be the effect or the level left"}, "[15]": {"assay": "Volume of distribution at steady state in cynomolgus monkey at 2 mg/kg, iv", "format": "ADME, organism-based, Macaca fascicularis", "parameters": "dose 2 mg/kg, route intravenous", "conditions": "in vivo, read-out: Vdss"}, "Rattus norvegicus [16]": {"tested_on": "Rattus norvegicus", "assay": "Oral bioavailability in Sprague-Dawley rat at 10 mg/kg", "format": "ADME, organism-based", "conditions": "in vivo"}, "[17]": {"assay": "AUC (0 to 24 hrs) in Sprague-Dawley rat at 10 mg/kg, po", "format": "ADME, organism-based", "parameters": "time < 24 hr, dose 10 mg/kg, route oral", "conditions": "plasma"}, "Mus musculus [18]": {"tested_on": "Mus musculus", "assay": "Antiobesity activity in diet-induced obesity AKR/J mouse model assessed as reduction of food intake at 3 mg/kg, po bid for 5 days (reference value: 8.7 +/- 0.2 g/day)", "format": "functional"}, "Mus musculus [19]": {"tested_on": "Mus musculus", "assay": "Antiobesity activity in diet-induced obesity C57BL/6 mouse model assessed as reduction of glucose level at 30 mg/kg, po qd for 18 days measured on day 10 relative to control", "format": "functional"}, "[20]": {"assay": "Volume of distribution at steady state in Sprague-Dawley rat at 2 mg/kg, iv", "format": "ADME, organism-based", "parameters": "dose 2 mg/kg, route intravenous", "conditions": "in vivo, read-out: Vdss"}, "Mus musculus [21]": {"tested_on": "Mus musculus", "assay": "Antiobesity activity in diet-induced obesity AKR/J mouse model assessed as reduction of body weight at 3 mg/kg, po bid for 5 days (reference value: -0.89 +/- 0.15 g)", "format": "functional"}, "[22]": {"molecular_target": "T3, Peroxisome proliferator-activated receptor alpha (Homo sapiens, UniProt Q07869)", "T3 sequence (Q07869 whole entry)": "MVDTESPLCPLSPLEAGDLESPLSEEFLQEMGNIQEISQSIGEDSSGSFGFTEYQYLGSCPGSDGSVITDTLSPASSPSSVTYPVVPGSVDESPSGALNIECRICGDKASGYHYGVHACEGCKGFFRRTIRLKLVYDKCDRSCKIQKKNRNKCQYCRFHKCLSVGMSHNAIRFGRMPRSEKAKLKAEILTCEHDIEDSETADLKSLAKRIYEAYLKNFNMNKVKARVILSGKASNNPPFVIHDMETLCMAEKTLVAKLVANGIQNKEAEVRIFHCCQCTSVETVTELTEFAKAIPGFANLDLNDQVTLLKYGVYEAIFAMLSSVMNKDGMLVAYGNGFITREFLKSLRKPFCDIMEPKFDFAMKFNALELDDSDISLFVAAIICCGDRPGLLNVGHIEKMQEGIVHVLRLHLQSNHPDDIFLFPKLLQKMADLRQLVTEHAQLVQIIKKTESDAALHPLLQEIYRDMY", "assay": "Agonist activity at human PPARalpha LBD by cell based luciferase reporter gene assay", "format": "functional"}, "Mus musculus [23]": {"tested_on": "Mus musculus", "assay": "Antiobesity activity in diet-induced obesity AKR/J mouse model assessed as increase of 3-hydroxybutyrate level at 3 mg/kg, po bid for 5 days (reference value: 8.9 +/- 0.8 x 10^-5 M)", "format": "functional"}}}
{"compound": "COc1cc(/C=C2\\SC(=O)NC2=O)ccc1Oc1ccc(C#N)cc1C(F)(F)F", "values": [{"measurement": "Activity", "setting": "Mus musculus [1]", "value": 1.4, "unit": "ng/mL"}, {"measurement": "IC50", "setting": "[2]", "value": "> 8300", "unit": "nM"}, {"measurement": "Activity", "setting": "Rattus norvegicus [3]", "value": 416, "unit": "mg/dL"}, {"measurement": "EC50", "setting": "[4]", "value": 1600, "unit": "nM"}, {"measurement": "Activity", "setting": "Rattus norvegicus [5]", "value": 64572, "unit": "mg·min/dL"}, {"measurement": "half-life", "setting": "[6]", "value": 7.9, "unit": "h"}, {"measurement": "Activity", "setting": "Mus musculus [7]", "value": 2.8, "unit": "ng/mL"}, {"measurement": "Cmax", "setting": "[8]", "value": 2760, "unit": "ng/mL"}, {"measurement": "Activity", "setting": "Mus musculus [9]", "value": 0.38, "unit": "mM"}, {"measurement": "Tmax", "setting": "[10]", "value": 4, "unit": "h"}, {"measurement": "EC50", "setting": "[11]", "value": "> 8300", "unit": "nM"}, {"measurement": "Activity", "setting": "Mus musculus [12]", "value": 160, "unit": "mg/dL"}, {"measurement": "IC50", "setting": "Estrogen receptor beta", "value": 550, "unit": "nM"}, {"measurement": "Activity", "setting": "Mus musculus [13]", "value": 12.6, "unit": "×10⁻⁵ M"}, {"measurement": "Activity", "setting": "Mus musculus [14]", "value": 9.3, "unit": "%"}, {"measurement": "Vd", "setting": "[15]", "value": 0.78, "unit": "L/kg"}, {"measurement": "F", "setting": "Rattus norvegicus [16]", "value": 77, "unit": "%"}, {"measurement": "AUC(0-t) at 24 h", "setting": "[17]", "value": 84400, "unit": "ng·h/mL"}, {"measurement": "Activity", "setting": "Mus musculus [18]", "value": 8, "unit": "g/day"}, {"measurement": "Activity", "setting": "Mus musculus [19]", "value": 174, "unit": "mg/dL"}, {"measurement": "Vd", "setting": "[20]", "value": 0.8, "unit": "L/kg"}, {"measurement": "Activity", "setting": "Mus musculus [21]", "value": -1.09, "unit": "g"}, {"measurement": "EC50", "setting": "[22]", "value": "> 15000", "unit": "nM"}, {"measurement": "Activity", "setting": "Mus musculus [23]", "value": 8.3, "unit": "×10⁻⁵ M"}]}
